Measurements published in PMC7048748, “Anxiolytic Drug FGIN-1-27 Ameliorates Autoimmunity by Metabolic Reprogramming of Pathogenic Th17 Cells” (Scientific Reports, 2020).

Columns and labels:
Assay type in all cases: cell-based, mouse
[1] = test system: Th17 cells from TSPO KO mice; experiment: Th17 differentiation with CD4 T cells from TSPO knockout mice; settings: compared with T cells expressing TSPO
From the text: We explored the mechanism of action for FGIN-1-27 and whether the effect of FGIN-1-27 on Th17 differentiation was driven by TSPO, the reported target of this compound. We used two approaches: first, we investigated the correlation between FGIN-1-27 induced IL-17 down-regulation and binding to TSPO. For the binding studies, we used a biochemical radio ligand displacement assay with the well-characterized TSPO ligand PK-11195 as a tracer. […] Secondly, we purified CD4^+ T cells from spleen and lymph nodes of mice that lacked global expression of TSPO (TSPO KO mice)[19]. We added FGIN-1-27 to the cultures of CD4^+ T cells from controls or TSPO KO mice that were induced towards the Th17 differentiation program.
Figure 3 Effect of FGIN-1-27 on Th17 Differentiation is Independent of TSPO. (a) Plot showing correlation between binding of FGIN-1-27 to TSPO and effect on IL-17 production. Binding of FGIN-1-27 to TSPO was measured using a biochemical radiolabeled displacement assay and radiolabeled PK-11195 was used as a control ligand. (b) Immunoblot to detect TSPO from spleens of either control or TSPO knockout mice (upper panel) and dose response plot for FGIN-1-27 showing effect on Th17 differentiation using purified CD4 T cells from spleens of either control or TSPO knockout mice. IL-17 production was normalized using DMSO treatment from control cells as 100%. […]

ATF4 = experiment: Western blot for ATF4; settings: 24 hours, compared to DMSO controls
Protocol: (a) MA-plot showing shrunken log2 fold-changes of detected genes between the DMSO and FGIN-1-27 RNA-seq samples, ranked by average normalized count. Red dots indicate differentially expressed genes at adjusted p-value <0.05. (b) Transcript levels for the indicated genes after 24 hours of treatment with DMSO or FGIN-1-27 quantified by qPCR. The error bars represent SD. (c) Western blot analysis for phosphorylated eIF2α and ATF4 24 hours after treatment with DMSO or FGIN-1-27 (5 and 10 µM). Data are representative of 3 independent experiments. (d) Amino acids in Th17 cells measured 72 hours after treatment with FGIN-1-27. The error bars represent SD. (e) ROS was measured using cell permeant reagent 2′,7′ –dichlorofluorescin diacetate (DCFDA) at 24 hours following treatment with FGIN-1-27. Filled grey histogram-DMSO, dotted line-FGIN-1-27 (10 µM) and dashed line indicates FGIN-1-27 (5 µM). […] Data are normalized using DMSO treated cells as 100% and the error bars represent SD.
Cell lysates were prepared by lysis in RIPA buffer containing protease and phosphatase inhibitors and immunoblotting was performed by standard methods.
(a) W estern blot analysis for phosphorylated eIF2α and ATF4 24 hours after treatment
with DMSO or FGIN-1-27 (5 and 10 µM). […]
(a) Indicated sterols were measured in Th17 cells treated with DMSO or FGIN-1-27 for […]

[2] = test system: S6 ribosomal protein (Ser 235/236) and mTOR (Ser 2448); experiment: Phospho S6 and phospho mTOR staining; settings: 10, 5 and 2.5 µM
Protocol: For phospho-S6 analyses, cells were cultured for 3 hours in Th17 polarization media on anti-CD3/CD28 coated plates. Cells were then fixed after fixation and permeabilization with a Transcription Factor Staining kit (eBioscience) and stained with anti-phospho-S6 antibody (S235/236, Cell Signaling) and anti-CD4. Dead cells were excluded using Live/Dead stain prior to fixation. For mTOR analyses, anti-phospho-mTOR antibody was used (Ser2448, eBioscience). page 6: […] blot analysis for phosphorylated eIF2α and ATF4 24 hours after treatment with DMSO or FGIN-1-27 (5 and 10 μM). (b) Intracellular phospho S6 ([…]/236) Th17 cells treated with DMSO or FGIN-1-27 […] The black line represents DMSO and the grey filled histogram represent FGIN-1-27 (10μM). The dotted lines (5μ M) and the dashed line represents staining after 2.5μM of FGIN-1-27 treatment. (c) Intracellular phospho mTOR ([…]) Th17 cells treated with DMSO or FGIN-1-27 […] The black line represents DMSO and the grey filled histogram represent FGIN-1-27 (10μM). The dotted lines (5μ M) and the dashed line represents staining after 2.5μM of FGIN-1-27 treatment.

## CCCCCCN(CCCCCC)C(=O)Cc1c(-c2ccc(F)cc2)[nH]c2ccccc12 [FGIN-1-27, N, N-di-n-hexyl 2-(4-fluorophenyl) indole-3-acetamide]
[1]
  Th17 differentiation in T cells from TSPO KO mice: similarly to T cells expressing TSPO
ATF4
  increase in ATF4 translation: 2.8 fold
[2]
  phosphorylation of S6 ribosomal protein (Ser 235/236) and mTOR (Ser 2448): dose-dependent decrease
